The target of this assay is RAF proto-oncogene serine/threonine-protein kinase [Y340E,Y341E] (Human, UniProt P04049, Y340E/Y341E). As to the kind of experiment: Biological Assays. The source says: The activity of a compound according to the present invention can be assessed by well-known in vitro & in vivo methods. […] CRAF cDNA was subcloned as full length protein, with Y340E and Y341E activating mutations, into a baculovirus expression vector for Sf9 insect cell expression. h14-3-3 zeta cDNA was subcloned into a baculovirus expression vector for SF9 insect cell expression. Sf9 cells co-expressing both proteins were lysed and subjected to immobilized nickel chromatography and eluted with Imidazole. A second column (StrepII binding column) was used and eluted with desthiobiotin. Protein Tags were removed using Prescission enzyme and the protein was further purified using a flowthrough step to remove tags.C-Raf TR refers to a truncated C-Raf protein, a Δ1-324 deletion mutant. C-Raf FL refers to the full-length C-Raf protein.Full length MEK1 with an inactivating K97R ATP binding site mutation is utilized as a RAF substrate. The MEK1 cDNA was subcloned with an N-terminal (his)6 tag into a vector for E. Coli expression. The MEK1 substrate was purified from E. Coli lysate by nickel affinity chromatography followed by anion exchange. The final MEK1 preparation was biotinylated (Pierce EZ-Link Sulfo-NHS-LC-Biotin) and concentrated.Assay Materials: Assay buffer is 50 mM Tris, pH 7.5, 15 mM MgCl2, 0.01% Bovine Serum Albumin (BSA) and 1 mM dithiothreitol (DTT); Stop buffer is 60 mM ethylenediaminetetraacetic acid (EDTA) and 0.01% Tween 20; b-Raf (V600E), active; biotinylated Mek, kinase dead; Alpha Screen detection kit (available from PerkinElmer , #6760617R); Anti phospho-MEK1/2 (available from Cell Signaling Technology, Inc. #9121); 384 well low volume assay plates (White Greiner plates).Assay conditions: b-Raf (V600E) approximately 4 pM; c-Raf approximately 4 nM; biotinylated Mek, kinase dead approximately 10 nM; ATP 10 μM for BRAF (V600E) and 1 μM for CRAF; Pre-incubation time with compounds 60 minutes at room temperature; Reaction time 1 or 3 hours at room temperature.Assay protocol: Raf and biotinylated Mek (kinase dead) were combined at 2× final concentrations in assay buffer (50 mM Tris, pH 7.5, 15 mM MgCl2, 0.01% BSA and 1 mM DTT) and dispensed […] per well in assay plates (Greiner white 384 well assay plates #781207) containing […] of 40× of a Raf kinase inhibitor test compound diluted in 100% DMSO. The plate was incubated for 60 minutes at room temperature. The Raf kinase activity reaction was started by the addition of […] per well of 2×ATP diluted in assay buffer. After 3 hours (b-Raf(V600E)) or 1 hour (c-Raf). The reactions were stopped and the phosphorylated product was measured using a rabbit anti-p-MEK (Cell Signaling, #9121) antibody and the Alpha Screen IgG (ProteinA) detection Kit (PerkinElmer #6760617R), by the addition of […] to the well of a mixture of the antibody (1:2000 dilution) and detection beads (1:2000 dilution of both beads) in Stop/bead buffer (25 mM EDTA, 50 mM Tris, pH 7.5, 0.01% Tween20). The additions were carried out under dark conditions to protect the detection beads from light. A lid was placed on top of the plate and incubated for 1 hour at room temperature, after which the luminescence was read on a PerkinElmer Envision instrument.
Chain of RAF proto-oncogene serine/threonine-protein kinase [Y340E,Y341E] (P04049 whole entry Y340E/Y341E): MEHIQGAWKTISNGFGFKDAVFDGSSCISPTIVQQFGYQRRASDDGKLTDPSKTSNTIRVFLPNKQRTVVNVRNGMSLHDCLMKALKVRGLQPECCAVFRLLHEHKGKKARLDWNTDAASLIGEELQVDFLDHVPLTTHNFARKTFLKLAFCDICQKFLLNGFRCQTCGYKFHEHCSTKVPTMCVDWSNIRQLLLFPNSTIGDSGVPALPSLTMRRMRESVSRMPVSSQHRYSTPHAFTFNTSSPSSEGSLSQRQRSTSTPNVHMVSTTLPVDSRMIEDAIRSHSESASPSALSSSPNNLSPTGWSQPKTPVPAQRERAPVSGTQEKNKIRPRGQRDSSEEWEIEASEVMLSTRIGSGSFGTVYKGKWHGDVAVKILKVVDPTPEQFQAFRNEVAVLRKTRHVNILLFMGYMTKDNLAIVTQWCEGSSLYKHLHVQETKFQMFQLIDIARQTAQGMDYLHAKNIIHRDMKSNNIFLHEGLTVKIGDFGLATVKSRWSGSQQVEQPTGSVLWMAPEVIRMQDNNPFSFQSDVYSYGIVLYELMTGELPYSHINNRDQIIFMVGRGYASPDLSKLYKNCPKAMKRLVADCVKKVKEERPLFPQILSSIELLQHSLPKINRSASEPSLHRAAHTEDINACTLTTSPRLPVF

`Cc1ccc(NC(=O)c2ccnc(C(F)(F)F)c2)cc1-c1cnc2c(c1)N1CCOCC1C1(COC1)C2` (racemic) [US10377770, Example 153] yielded an IC50 of 0.005 nM. On to `CCN1C(=O)[C@@H]2COCCN2c2cc(-c3cc(NC(=O)c4ccnc(C(F)(F)F)c4)ccc3C)nnc21` [US10377770, Example 133], for which half-maximal inhibition (IC50) required 0.011 nM. In the case of `CCN1C(=O)[C@H]2COCCN2c2cc(-c3cc(NC(=O)c4ccnc(C(F)(F)F)c4)ccc3C)nnc21` [US10377770, Example 134], the IC50 was determined as 0.016 nM. As to `CCN1C(=O)[C@@H]2COCC[C@H]2c2cc(-c3cc(NC(=O)c4cnnc(C(F)(F)F)c4)ccc3C)cnc21` [US10377770, Example 257], the IC50 is less than 0.1 nM. Next, `Cc1ccc(NC(=O)c2ccnc(C(F)(F)F)c2)cc1-c1cnc2c(c1)[C@@H]1CCOC[C@H]1C(=O)N2CCO` [US10377770, Example 258]: less than 0.1 nM. In turn, `Cc1ccc(NC(=O)c2ccnc(C(C)(F)F)c2)cc1-c1cnc2c(c1)[C@@H]1CCOC[C@H]1C(=O)N2CCO` [US10377770, Example 267] had an IC50 of less than 0.1 nM. Compound `Cc1ccc(NC(=O)c2ccnc(C(F)(F)F)c2)cc1-c1cnc2c(c1)C1CCOCCC1C(=O)N2CCO` (centres undefined) [US10377770, Example 284] yielded an IC50 of less than 0.1 nM.

Consider `Cc1ccc(NC(=O)c2ccnc(C(C)(F)F)c2)cc1-c1cnc2c(c1)C1CCOCCC1C(=O)N2CCO` (centres undefined) [US10377770, Example 286], for which the IC50 is less than 0.1 nM. Then `CCN1C(=O)OC2COCCC2c2cc(-c3cc(NC(=O)c4ccnc(C(F)(F)F)c4)ccc3C)cnc21` (centres undefined) [US10377770, Example 297], with 0.9 nM; and `CCN1C(=O)OC2COCCC2c2cc(-c3cc(NC(=O)c4cnnc(C(F)(F)F)c4)ccc3C)cnc21` (centres undefined) [US10377770, Example 301], with less than 0.1 nM. The compound `Cc1ccc(NC(=O)c2ccnc(C(F)(F)F)c2)cc1-c1cnc2c(c1)N1CCOC[C@H]1CC(=O)N2CCO` [US10377770, Example 333] showed an IC50 of less than 0.1 nM.

The compound `Cc1ccc(NC(=O)c2ccnc(C(F)(F)F)n2)cc1-c1ccc2c(c1)N1CCOC[C@H]1[C@](F)(CO)C2` [US10377770, Example 388] returned a 50% inhibitory concentration (IC50) of 0.4 nM. Compound `Cc1ccc(NC(=O)c2cccc(C(F)(F)F)n2)cc1-c1ccc2c(c1)N1CCOC[C@H]1[C@](F)(CO)C2` [US10377770, Example 389] gave an IC50 of 0.5 nM. The IC50 values of the last two compounds are within 1.5-fold of each other. Compound `Cc1ccc(NC(=O)c2ccnc(C(F)(F)F)c2)cc1-c1ccc2c(c1)N1CCOC[C@@H]1[C@@](CO)(CF)C2` [US10377770, Example 405] yielded an IC50 of 0.2 nM.

A word on the IC50: it is the concentration that inhibits the measured activity by half. High values mean lower potency, low ones higher potency.

The record behind these values is BindingDB's records for patent US10377770 (Novartis, 2019).
